Assay results as given in US3941790A, “Bis diketopiperazines” (National Research Development Corporation, priority 1967, dated 1976).
Converted amounts (≈) assume the structure as drawn.

Experiments:
leukemia L1210 [1] = assay: leukemia L1210 ascites cells injected intraperitoneally, survival and non-takes (Table II); format: in vivo, mice; settings: daily i.p. 40 mg./Kg.; for Non-takes: groups of 10 mice, 10% DMSO control 1/10; for Mean survival days: 10% DMSO control 10.1; for Survival days: individual mice
Protocol: v. A suspension of leukaemic cells from DBA2 mice heavily infected with leukemia L1210 is obtained by removing ascites from the peritoneal cavity. The ascitic fluid is diluted in saline and injected intraperitoneally at a level of 10^6 cell into groups of BDFi females.
Stock solutions of each of the dl, d and l isomers of 1,2-bis(3,5-dioxopiperaxin-1-yl)propane in dimethylsulphoxide (DMSO) are prepared and kept frozen. The solutions are thawed each morning and an aliquot diluted 10-fold with saline. Daily intraperitoneal injections of the three diluted solutions into groups of 10 mice are started on the day after innoculation of the leukaemic cells at a daily dosage level of 40 mg./Kg. (equivalent to 0.5 to 1.0 ml of solution per injection). A control group of mice is injected daily with a similar volume of 10% DMSO in saline.
In general, the deaths of mice in any group occur within a few days of each other. If one or more members of a group survive 5 days longer than any other of their companions, injections are stopped and if these mice survive a further 5 days they are classed as failures of transplantation. This is merely an objective criterion of a situation which is visually obvious; the "non-Takes" typically looking sleek and healthy and having no tumor at the inoculation site nor having their bellies swollen with ascitic fluid.

[2] = tested on: tumours and other forms of cancer; assay: anti-cancer / biological activity, general statement; settings: for biological activity of d and l forms compared with racemic dl mixture: each substantially free from the other and from the dl form
[3] = tested on: secondary mouse fibroblast cultures; assay: inhibition of 3H-thymidine incorporation (rate of DNA synthesis) in mammalian cell cultures; format: cell-based; settings: 22 hours incubation; for inhibition at 1 µg/mL: 1 μg./ml.; for inhibition at 200 µg/mL: 200 μg./ml.; for inhibition at 0.3 µg/mL: 0.3 μg./ml.; for inhibition at 3 µg/mL: 3 μg./ml.
Protocol: The overall effects of various compounds on the rate of synthesis of DNA is mammalian cell cultures are determined with the method of Birnie and Simons (Experimental Cell Research, 1967, 46, 355) by measuring the changes in the amount of ^3 H-thymidine incorporated in 1 hour by secondary mouse fibroblast cultures which have been incubated with a particular compound for 22 hours.
Typical results illustrating the degree of inhibition of ^3 H-thymidine incorporation for the treated fibroblasts as compared with untreated fibroblasts are given in Table I. The results obtained can be regarded as a measure of cytotoxicity and correlate well with results obtained with implanted tumors in mice.

physchem = settings: water
From the text: Although the invention is restricted to one stereoisomeric form as far as certain compounds are concerned, others can exist in different stereoisomeric forms, thus the cyclo-butane analogue (I,R1 R2 = C2 H4) can exist in a trans form and also a cis form.

[4] = stability of aqueous salt solutions; format: physicochemical; settings: acid solution plus disodium hydrogen phosphate, pH 5.7; injection within 1 hour of preparation recommended
Protocol: When the compounds are to be formulated as salts, preferred formulations are prepared with methane sulphonic acid, isethionic acid, tartaric acid and other solubilizing acids. Salts thus formed are frequently difficult to isolate in view of the weak basicity of some of the parent compounds but their aqueous solutions, after adjustment to physiologically acceptable pH with buffers, are stable for extended periods of time. Solutions of similar strength, i.e., 0.5% (w/v), are also obtainable with hydrochloric acid.
iv. The product of Example 2 (0.548 g.) is added to 5 ml. of a 0.4N solution of (1) hydrochloric acid, (2) isethionic acid, (3) methane sulphonic acid, or (4) tartaric acid, and the mixture is made up to 100 ml. by the addition of water. The solution so obtained is added to an aqueous solution of disodium hydrogen phosphate (0.2M, 10 ml.) to provide a stable solution having a pH of 5.7. Injection of the solution within 1 hour of preparation is recommended.

leukemia L1210 [5] = assay: leukemia L1210 implanted mice, survival time; format: in vivo; settings: for Treated/Control value of survival time, L1210: similar to (ii)
Protocol: Mice implanted with leukemia L1210 are treated as described above with 30 mg. of active substance per kilo for a continuing period until all the animals succumb.

leukemia L1210 [6] = assay: inter-cerebrally implanted leukemia L1210; format: in vivo
Sarcoma 180 (S180) = assay: implanted tumor Sarcoma 180, mean tumor weight; format: in vivo, mice
Protocol: (§1) ii. Mice having implanted tumors Sarcoma 180 and Adenocarcinoma 755, and rats having the implanted tumor Walker 256, are treated with 1,2-bis(3,5-dioxopiperazin-1-yl) ethane. The compound is administered by intraperitoneal injection of a suspension of the substance in isotonic saline containing 1/2% (w/v) carboxymethyl cellulose. The mice are dosed with 30 mg. of active substance per kilo daily for 5 out of 8 days, and their tumors are exercised and weighed. The rats are given one dose only of 400 mg. per kilo and maintained without further treatment for 8 days when their tumors are also removed and weighed. Compared with control animals typical Treated/Control values of mean tumor weight for the S180 and Ca 755 tumors are in the range of 5-10%, and for the Walker tumors of the order of 20%.
iii. In tests with tumor S180 similar to those described under (ii) typical Treated/Control values of mean tumor weight for dl-1,2-bis(3,5-dioxopiperazin-1-yl) butane and meso-2,3-bis(3,5-dioxopiperazin-1-yl) butane are 84% at 30 mg./Kg. and 22% at 0.25 mg./Kg. respectively.

[7] = tested on: lymphosarcomas, fibrosarcomas, carcinomas, lymphoblastic leukemias and Hodgkin's disease; assay: trials in human patients with various forms of cancer; format: in vivo; settings: some previously treated unsuccessfully with other drugs or radiotherapy
[8] = survival and weight gain of treated S180 tumor-bearing mice; format: in vivo; settings: fed at 30 mg./Kg. on 5 out of 8 days
Walker 256 = assay: implanted tumor Walker 256, mean tumor weight; format: in vivo; settings: rats, i.p., one dose of 400 mg. per kilo, 8 days
Protocol: as §1

[9] = tested on: Adenocarcinoma 755 (Ca 755); assay: implanted tumor Adenocarcinoma 755, mean tumor weight; format: in vivo; settings: mice, i.p., 30 mg. per kilo daily for 5 out of 8 days
Protocol: as §1

metastases = assay: inhibition of metastases; settings: in vivo

C[C@H](CN1CC(=O)NC(=O)C1)N1CC(=O)NC(=O)C1 [l-1,2-bis(3,5-Dioxopiperazin-1-yl)propane]
% Increase of survival time over controls (leukemia L1210 [1]): 99%
Non-takes (leukemia L1210 [1]): 0/10
Mean survival days (leukemia L1210 [1]): 20.1 days
Survival days (leukemia L1210 [1]; listed as l-): 26 days
biological activity of d and l forms compared with racemic dl mixture [2]: no substantial difference in biological activity
inhibition at 1 µg/mL [3]: 52%
inhibition at 200 µg/mL [3]: 72%
solubility (physchem): ~11000 µg/mL (≈ 41 mM)

C[C@@H](CN1CC(=O)NC(=O)C1)N1CC(=O)NC(=O)C1 [d-1,2-bis(3,5-Dioxopiperazin-1-yl)propane]
% Increase of survival time over controls (leukemia L1210 [1]): 93%
Non-takes (leukemia L1210 [1]): 0/10
Mean survival days (leukemia L1210 [1]): 19.5 days
Survival days (leukemia L1210 [1]; listed as d-): 26 days
biological activity of d and l forms compared with racemic dl mixture [2]: no substantial difference in biological activity
inhibition at 1 µg/mL [3]: 44%
inhibition at 200 µg/mL [3]: 74%

CC(CN1CC(=O)NC(=O)C1)N1CC(=O)NC(=O)C1 (racemic) [dl-1,2-bis(3,5-Dioxopiperazin-1-yl)propane]
stability of solution [4]: stable
Treated/Control value for survival time, L1210 (leukemia L1210 [5]; intraperitoneal, 30 mg./Kg. daily until death): 257%
Treated/Control value for survival time, L1210 (leukemia L1210 [5]; orally, 75 mg./Kg.): 157%
Treated/Control value for survival time, L1210 (leukemia L1210 [5]; subcutaneous, 30 mg./Kg. daily until death): 223%
effectiveness against inter-cerebrally implanted leukemia L1210 (leukemia L1210 [6]; in vivo): effective
ability to cross the blood-brain barrier (leukemia L1210 [6]; indicated by effect on inter-cerebrally implanted L1210): indicative of the ability of the compound to cross the blood-brain barrier
% Increase of survival time over controls (leukemia L1210 [1]): 86%
Non-takes (leukemia L1210 [1]): 0/10
Mean survival days (leukemia L1210 [1]): 18.8 days
Survival days (leukemia L1210 [1]; listed as dl-): 25 days
Treated/Control value for mean tumor weight, S180 (Sarcoma 180 (S180); mice, fed at 30 mg./Kg. on 5 out of 8 days): 7%
regression and palliation of cancers in patients [7]: significant regression and palliation of the cancers
inhibition at 0.3 µg/mL [3]: 15%
inhibition at 1 µg/mL [3]: 48%
inhibition at 5 µg/mL ([3]; 5 μg./ml.): 63%
survival of animals [8]: all the animals surviving
weight gain ([8]; controls 29%): 12%
solubility (physchem): ~1000 µg/mL (≈ 3.73 mM)

C[C@H]([C@H](C)N1CC(=O)NC(=O)C1)N1CC(=O)NC(=O)C1 [meso-2,3-bis(3,5-Dioxopiperazin-1-yl)butane]
Treated/Control value of survival time, L1210 (leukemia L1210 [5]; 0.25 mg./Kg.): 165%
Treated/Control value of mean tumor weight, S180 (Sarcoma 180 (S180); 0.25 mg./Kg., similar to (ii)): 22%
anti-cancer activity, in words [2]: significant activity
inhibition at 0.002 µg/mL ([3]; 0.002 μg./ml.): 19%
inhibition at 0.01 µg/mL ([3]; 0.01 μg./ml.): 72%
inhibition at 1 µg/mL [3]: 78%

O=C1CN([C@@H]2CC[C@H]2N2CC(=O)NC(=O)C2)CC(=O)N1 (relative stereo) [trans-1,2-bis(3,5-Dioxopiperazin-1-yl)cyclobutane]
inhibition at 3 µg/mL [3]: 22%
inhibition at 67 µg/mL ([3]; 67 μg./ml.): 60%

O=C1CN(CCN2CC(=O)NC(=O)C2)CC(=O)N1 [1,2-bis(3,5-dioxopiperazin-1-yl)ethane, 1,2-bis(3,5-Dioxopiperazin-1-yl)ethane]
Treated/Control value of mean tumor weight, Walker (Walker 256): ~20%
Treated/Control value of mean tumor weight, Ca 755 [9]: 5-10%
Treated/Control value of mean tumor weight, S180 (Sarcoma 180 (S180); mice, i.p., 30 mg. per kilo daily for 5 out of 8 days): 5-10%
inhibition at 0.3 µg/mL [3]: 21%
inhibition at 8 µg/mL ([3]; 8 μg./ml.): 69%

O=C(O)CN(CCN(CC(=O)O)CC(=O)O)CC(=O)O [ethylene diamine tetra-acetic acid, reference compound]
anti-cancer activity, in words [2]: lack of activity

C[C@H]([C@@H](C)N1CC(=O)NC(=O)C1)N1CC(=O)NC(=O)C1 (relative stereo) [dl-2,3-bis(3,5-dioxopiperazin-1-yl)butane, reference compound]
Treated/Control value of survival time, L1210 (leukemia L1210 [5]; 30 mg./Kg.): 80%
Treated/Control value of mean tumor weight, S180 (Sarcoma 180 (S180); 30 mg./Kg., similar to (ii)): 84%
anti-cancer activity, in words [2]: essentially inactive
inhibition at 3 µg/mL [3]: 3%
inhibition at 13 µg/mL ([3]; 13 μg./ml.): 26%

CC(CN1CC(=O)NC(=O)C1)N1CC(=O)NC(=O)C1 (centres unmarked) [1,2-bis(3,5-dioxopiperazin-1-yl)propane]
inhibition of metastases (metastases): marked degree of inhibition of metastases
